What was measured:
Format in all cases: cell-based
E. coli of swine origin = assay: Curing of antibiotic resistance (replica plating); settings: for curing for amoxicillin and clavulanic acid / curing for ampicillin / curing for chloramphenicol: isolates treated with EB or IDU
Method: (§1) Plasmid curing of antibiotic resistant bacteria was measured as described by Lakshmi and Thomas (1989) and NCCLS (2000). Briefly, aliquots (final inoculum concentration approximately 1×10^5 CFU/ml) of Salmonella isolates, E. coli isolates, and commercial isolates of E. coli XL1-blue and E. coli RK2 were added to tubes containing 1 ml aliquots of increasing concentrations of P-YCWP or YCWP (0, 0.01, 0.1, 0.3, 0.5, 1.0, 2.0, 3.0% w/v). A control culture was established by adding bacterial isolates as described above to aliquots of increasing concentrations of mannose. Known curing agents [ethidium bromide and iododeoxyuridine (IDU)] were used as positive controls, and to provide a percent curing activity. Tubes were incubated at 35° C. for 24 hr.
(§2) Following incubation, bacterial aliquots were plated on MacConkey agar plates (master plates). Antibiotic resistance after treatment was evaluated by replica plating on MacConkey agar containing predetermined concentrations of antimicrobial agents. Minimum curing concentration (MCC) was defined as the minimum concentration of compound able to “cure” bacteria, that is, remove antibiotic resistance, within a 24 hr period. A sample was considered to contain bacteria resistant to an antibiotic when greater than 1% of a sample plated on a master plate of MacConkey agar grew on an antibiotic-containing replica plate.

E. coli (30) = assay: Agglutination; settings: sugar 100 mM
Method: (§3) E. coli and Salmonella isolates were evaluated for ability to agglutinate P-YCWP and YCWP by growing isolates into TIF slants (10 g peptone, 5 g NaCl, 5 g yeast extract and 15 g bacto agar per liter) for 24 hr. Sugar solutions (100 mM) of glucose, mannose, or fructose were prepared in 100 mM phosphate-buffered solution (PBS) at pH 7.2. Yeast cell wall preparations were suspended (1 g YCWP) into 1 liter of PBS. The grown isolates were resuspended in PBS and mixed with 0.1 ml PBS as control or 0.1 ml sugar solution (glucose, mannose, or fructose) to occupy bacterial attachment sites. For adherence tests, 10 μl of P-YCWP or YCWP suspension was placed on a series of microscope slides. The negative control was […] of PBS mixed with YCWP suspension. Bacterial suspension (10 μl) as described above was added, mixed using an orbital shaker, and observed under light microscope (100-1000× magnification). The ability of any of the sugars to inhibit or weaken agglutination was considered evidence that that sugar played a role in agglutination/attachment for that bacteria.

S. Cholerasuis (2) = assay: Agglutination; settings: sugar 100 mM
Method: as §3

S. pullorum (1) = assay: Agglutination; settings: sugar 100 mM
Method: as §3

Salmonella spp. (13) = assay: Agglutination; settings: sugar 100 mM
Method: as §3

[1] = test system: S. enteritidis (ATCC 13076); assay: Curing / plasmid loss; settings: streptomycin-resistant; 24 hr exposure, replica plating
Method: as §1
(§4) Following incubation, bacterial aliquots were plated on MacConkey agar plates (master plates). Antibiotic resistance after treatment was evaluated by replica plating on MacConkey agar containing predetermined concentrations of antimicrobial agents. Minimum curing concentration (MCC) was defined as the minimum concentration of compound able to “cure” bacteria, that is, remove antibiotic resistance, within a 24 hr period. […]
(§5) Plasmids were evaluated by microbial lysis and extraction of DNA (Mini-prep System, Bio-Rad Laboratories, Hercules, Calif.), followed by electrophoretic separation on 1% agarose gel (Bio-Rad). […]

E. coli XL1-blue = assay: Curing / plasmid loss, narrow range plasmid strain; settings: FIG. 4
Method: as §1, §4, §5

[2] = test system: E. coli ATCC 33766, plasmid pRK248clts; assay: Curing, broad range plasmid strain; settings: tetracycline-resistant determinant; data not shown
Method: as §1, §2

| SMILES | curing for amoxicillin and clavulanic acid (E. coli of swine origin) | curing for ampicillin (E. coli of swine origin) | curing for chloramphenicol (E. coli of swine origin) | agglutination with YCWP or P-YCWP in presence of sugar (E. coli (30)) | agglutination with YCWP or P-YCWP in presence of sugar (S. Cholerasuis (2)) | agglutination with YCWP or P-YCWP in presence of sugar (S. pullorum (1)) | agglutination with YCWP or P-YCWP in presence of sugar (Salmonella spp. (13)) | curing for neomycin (E. coli of swine origin; EB or IDU treatment) | curing for tetracycline (E. coli of swine origin; EB or IDU treatment) | curing [1] | curing (E. coli XL1-blue) | curing of the organism carrying the broad range plasmid [2] |
| --- | --- | --- | --- | --- | --- | --- | --- | --- | --- | --- | --- | --- |
| CC[n+]1c(-c2ccccc2)c2cc(N)ccc2c2ccc(N)cc21 [EB, ethidium bromide] | 100% | 5% | 100% | – | – | – | – | – | – | – | – | – |
| O=C(CO)[C@@H](O)[C@H](O)[C@H](O)CO [Fructcose, fructose] | – | – | – | Negative (−) | Negative (−) | Negative (−) | Negative (−) | – | – | – | – | – |
| O=c1[nH]c(=O)n([C@H]2C[C@H](O)[C@@H](CO)O2)cc1I [IDU, iododeoxyuridine] | 100% | 5% | 100% | – | – | – | – | no curing | no curing | Neither EB nor IDU showed any curing capacity | curing was seen | Neither yeast cell wall preparations nor traditional curing agents (EB, IDU) cured the organism |
